Measurements reported in article PMC4029899 (Clinical pharmacology and therapeutics, 2014).
Read-outs that look alike come from different tables or passages of the source. Marks after values point to notes of the source that are not given here.

Key:
[1] = target: T1, CYP3A4 (Homo sapiens, UniProt P08684); assay type: in vivo; conditions: for Clf: formation clearance; for Clf Treatment/Control / effect of fluoxetine on endogenous measures of hepatic CYP3A4 activity: human, in vivo; for effect of fluoxetine on CLr: p>0.05
T1 sequence (P08684 whole entry): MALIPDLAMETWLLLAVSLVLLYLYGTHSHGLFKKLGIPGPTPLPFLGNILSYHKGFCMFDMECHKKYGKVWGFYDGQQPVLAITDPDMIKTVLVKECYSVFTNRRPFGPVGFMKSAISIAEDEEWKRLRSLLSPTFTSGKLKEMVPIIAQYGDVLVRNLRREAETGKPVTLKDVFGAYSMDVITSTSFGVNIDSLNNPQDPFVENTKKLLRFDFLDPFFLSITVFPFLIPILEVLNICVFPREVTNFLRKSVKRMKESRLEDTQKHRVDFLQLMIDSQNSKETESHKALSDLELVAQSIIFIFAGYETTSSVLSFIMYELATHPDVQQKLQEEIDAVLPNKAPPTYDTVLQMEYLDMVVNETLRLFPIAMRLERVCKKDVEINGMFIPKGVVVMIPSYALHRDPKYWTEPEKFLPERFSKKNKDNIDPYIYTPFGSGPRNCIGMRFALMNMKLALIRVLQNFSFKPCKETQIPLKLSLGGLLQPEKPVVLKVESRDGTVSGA

[2] = target: T1, CYP3A4; conditions: multiple dose fluoxetine; cited from earlier work
[3] = cited from earlier work; for CLpo: calculated from reported CLiv and bioavailability
[4] = test system: Caco-2; conditions: ADAM model input; cited from earlier work
[5] = target: T1, CYP3A4; conditions: parameter used for simulations; ref SimCYP compound library; cited from earlier work
[6] = target: T2, CYP2C19 (Homo sapiens, UniProt P33261); conditions: from AUC ratio in CYP2C19 poor and extensive metabolizers; cited from earlier work
T2 sequence (P33261 whole entry): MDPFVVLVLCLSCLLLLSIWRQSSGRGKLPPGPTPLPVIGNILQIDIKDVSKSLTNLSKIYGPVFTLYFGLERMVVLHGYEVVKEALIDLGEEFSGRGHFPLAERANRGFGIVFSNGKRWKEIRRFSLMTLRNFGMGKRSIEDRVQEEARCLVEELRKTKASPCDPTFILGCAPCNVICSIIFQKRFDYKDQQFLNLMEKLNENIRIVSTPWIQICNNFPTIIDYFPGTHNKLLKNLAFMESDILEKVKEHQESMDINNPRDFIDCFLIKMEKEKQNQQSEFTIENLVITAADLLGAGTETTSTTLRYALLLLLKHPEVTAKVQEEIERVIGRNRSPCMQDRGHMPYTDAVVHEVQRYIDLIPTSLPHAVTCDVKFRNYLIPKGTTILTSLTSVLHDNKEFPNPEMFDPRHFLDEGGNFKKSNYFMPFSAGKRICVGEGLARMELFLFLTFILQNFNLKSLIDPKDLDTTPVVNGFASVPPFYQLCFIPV

[7] = target: T2, CYP2C19; assay: Clinical cocktail DDI study with fluoxetine, omeprazole probe; assay type: in vivo; conditions: for Cmax / half-life: both, human, plasma, oral; for half-life: probe omeprazole
[8] = test system: CYP2C19; assay: as above; assay type: in vivo, human; conditions: human, plasma, oral
[9] = parameter used for simulations; ref SimCYP compound library; cited from earlier work
[10] = Drug specific pharmacokinetic parameters used for simulations; assay type: in vivo, human
[11] = cited from earlier work
[12] = target: T2, CYP2C19; conditions: lansoprazole with fluoxetine; cited from earlier work
[13] = test system: human hepatocytes; assay: Toxicity to hepatocytes in the induction study; assay type: cell-based; conditions: prevented concentrations higher than 5µM
[14] = assay type: in vivo, human; conditions: day 12 of fluoxetine dosing (20mg day 1, then 60mg daily)
[15] = target: T3, CYP1A2 (Homo sapiens, UniProt P05177); assay: Clinical cocktail DDI study with fluoxetine, caffeine probe; assay type: in vivo; conditions: for AUC(0-inf): both, human, plasma
T3 sequence (P05177 1-516): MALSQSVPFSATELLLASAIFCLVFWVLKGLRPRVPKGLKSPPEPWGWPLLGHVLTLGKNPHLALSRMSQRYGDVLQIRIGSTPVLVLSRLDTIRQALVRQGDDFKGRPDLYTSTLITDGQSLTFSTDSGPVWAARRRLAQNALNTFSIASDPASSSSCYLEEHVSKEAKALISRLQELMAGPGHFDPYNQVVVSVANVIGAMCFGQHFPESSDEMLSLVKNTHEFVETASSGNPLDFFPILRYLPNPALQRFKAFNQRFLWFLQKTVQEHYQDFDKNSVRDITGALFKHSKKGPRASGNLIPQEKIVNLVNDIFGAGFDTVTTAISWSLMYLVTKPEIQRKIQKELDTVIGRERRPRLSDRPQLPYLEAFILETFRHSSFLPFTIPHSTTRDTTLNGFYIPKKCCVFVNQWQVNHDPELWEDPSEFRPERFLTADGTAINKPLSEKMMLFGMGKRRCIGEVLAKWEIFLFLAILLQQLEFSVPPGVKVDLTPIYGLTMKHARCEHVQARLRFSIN

[16] = target: CYP2D6 (Homo sapiens, UniProt P10635); conditions: desipramine with fluoxetine; cited from earlier work
CYP2D6, sequence (P10635 whole entry): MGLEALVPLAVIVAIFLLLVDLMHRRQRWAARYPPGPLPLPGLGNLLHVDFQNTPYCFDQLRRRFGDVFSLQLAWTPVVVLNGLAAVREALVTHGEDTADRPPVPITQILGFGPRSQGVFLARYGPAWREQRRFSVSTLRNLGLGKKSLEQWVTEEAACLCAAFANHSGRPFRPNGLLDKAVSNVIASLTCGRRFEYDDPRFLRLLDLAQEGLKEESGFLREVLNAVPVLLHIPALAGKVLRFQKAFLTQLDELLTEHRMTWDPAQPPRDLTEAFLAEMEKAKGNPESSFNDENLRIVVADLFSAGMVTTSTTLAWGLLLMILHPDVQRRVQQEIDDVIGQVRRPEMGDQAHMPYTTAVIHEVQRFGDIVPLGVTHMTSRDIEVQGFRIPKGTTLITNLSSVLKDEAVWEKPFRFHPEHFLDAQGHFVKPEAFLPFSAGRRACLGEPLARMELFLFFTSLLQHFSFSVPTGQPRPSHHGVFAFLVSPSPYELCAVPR

[17] = parameter used for simulations, ref SimCYP compound library
[18] = estimated to achieve desired distribution kinetics

## C[C@]12CCC(=O)C=C1[C@H](O)C[C@@H]1[C@@H]2C(=O)C[C@@]2(C)[C@H]1CC[C@]2(O)C(=O)CO [6β-hydroxycortisone]
[1]; Control
  Clr: 25 (13–68) L/hr
  Clf: 100 (38–390) mL/hr
[1]; Treatment
  Clf: 87 (39–190) mL/hr
[1]
  Clf Treatment/Control: 0.87
  effect of fluoxetine on endogenous measures of hepatic CYP3A4 activity: no effect
  effect of fluoxetine on CLr: no effect

## Cc1nnc2n1-c1ccc(Cl)cc1C(c1ccccc1)=NC2 [alprazolam]
[2]
  increase in AUC: 1.3 fold

## COc1ccc2[nH]c([S+]([O-])Cc3ncc(C)c(OC)c3C)nc2c1 (stereo not drawn) [Omeprazole]
[3]
  CLpo: 80 ^b L/hr
[3]; listed as omeprazole
  CLpo: 80 L/h
[3]; [17]
  CLr: 0.037 L/h
[3]; previously reported
  Vss: 0.24 ^b L/kg
[4]
  Caco-2 permeability: 26.2*10^−06 cm/s
[5]
  fm CYP3A4: 0.07
[6]
  fm CYP2C19: 0.93 ^e
[7]; after 12 days of fluoxetine
  decrease in oral CL: 86%
[7]; after fluoxetine
  change in t1/2: unchanged
[7]; after fluoxetine dosing
  increase in AUC0-∞ compared to control: 7.1 fold
[7]
  Cmax: 2500 ± 1400 nM
  half-life: 78 ± 6 min
[7]; 20 mg
  Cmax: 660 ± 380 nM
  half-life: 72 ± 30 min
[7]; fluoxetine administration day
  omeprazole concentrations, other subjects: 2800 ± 1200 nM
[7]; fluoxetine administration day, except 12-hour sample
  omeprazole concentrations, excluded outlier subject: < 4 nM
[8]
  concentration at 12 h: 34 nM
[9]
  fu: 0.043
[10]; [18]
  Vsac: 0.1 L/kg
  Vsac Q: 10 L/h
[11]; ADAM model input
  intrinsic solubility: 0.25 mg/mL

## NC(=O)N1c2ccccc2C=Cc2ccccc21 [carbamazepine]
[2]
  increase in AUC: 1.3 fold

## Cc1c(OCC(F)(F)F)ccnc1C[S+]([O-])c1nc2ccccc2[nH]1 (stereo not drawn) [lansoprazole]
[12]
  increase in AUC: 2.9 fold

## NCC[C@@H](Oc1ccc(C(F)(F)F)cc1)c1ccccc1 [(R)-norfluoxetine]
[9]
  fu: 0.2
[13]
  toxicity to hepatocytes: toxicity to the hepatocytes
[14]
  average plasma concentration: 200 ± 70 nM
[10]; estimated to reflect the reported t1/2 following a single oral dose
  CLIV: 11.8 L/h
[11]; [17]
  LogP: 3.8
  pKa 1: 9

## Cn1c(=O)c2c(ncn2C)n(C)c1=O [caffeine]
[15]; oral
  AUC(0-inf): 43 ± 15 µM·h
[15]; po, 100 mg
  AUC(0-inf): 43 ± 22 µM·h
[15]; p>0.05
  effect of fluoxetine on AUC0-∞, oral CL or t1/2: did not affect

## CNCCCN1c2ccccc2CCc2ccccc21 [desipramine]
[16]
  increase in AUC: 7.8 fold

## C[C@]12CCC(=O)C=C1[C@H](O)C[C@@H]1[C@@H]2[C@@H](O)C[C@@]2(C)[C@H]1CC[C@]2(O)C(=O)CO [6β-hydroxycortisol]
[1]; Control
  Clr: 4.2 (0.85–30) L/hr
  Um/Up: 1.1 (0.25–5.8)
  Clf: 40 (5.8–340) mL/hr
[1]; Treatment
  Um/Up: 0.79 (0.17–3.0)
  Clf: 28 (6.8–130) mL/hr
[1]
  Clf Treatment/Control: 0.7
  effect of fluoxetine on endogenous measures of hepatic CYP3A4 activity: no effect
  effect of fluoxetine on CLr: no effect
